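48-hour exposure; five concentrations; linearly interpolated endpoints. TGI is the concentration that stops growth completely.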
Assays:
Assay in all cases: DTP human tumour cell line panel, 48 h
A549 NSCLC = tested on: A549 NSCLC
RXF 393 renal = tested on: RXF 393 renal
SK-OV-3 ovarian = tested on: SK-OV-3 ovarian
KM12 colon = tested on: KM12 colon
COLO 205 colon = tested on: COLO 205 colon
IGROV1 ovarian = tested on: IGROV1 ovarian
MDA-MB-435 = tested on: MDA-MB-435
DU-145 prostate = tested on: DU-145 prostate
OVCAR-8 ovarian = tested on: OVCAR-8 ovarian
SW-620 colon = tested on: SW-620 colon

Structure (SMILES)	TGI (A549 NSCLC) [µM]	TGI (RXF 393 renal) [µM]	TGI (SK-OV-3 ovarian) [µM]	TGI (KM12 colon) [µM]	TGI (COLO 205 colon) [µM]	TGI (IGROV1 ovarian) [µM]	TGI (MDA-MB-435) [µM]	TGI (DU-145 prostate) [µM]	TGI (OVCAR-8 ovarian) [µM]	TGI (SW-620 colon) [µM]
Cn1c(=O)n2n(c1=O)C1C(=CC2)C2C=CC1n1c(=O)n(C)c(=O)n12 (stereo not given)	> 100	> 100	> 100	> 100	> 100	> 100	> 100	> 100	> 100	> 100
COC(=O)C[C@H]1[C@]2(C)C3=C(C)[C@H](c4ccoc4)CC3O[C@@H]2[C@@H]2OC(=O)[C@]3(C)CCC(=O)[C@@]1(C)[C@@H]23 (stereo not given in full)	> 100	> 100	> 100	> 100	> 100	> 100	> 100	> 100	> 100	> 100
Cc1ccc2c3ccc4c(c3n(C)c2c1)C(=O)C=CC4=O	> 10	> 7.63	> 10	> 10	5.51	> 10	> 10	> 10	> 10	4.58
NC(=S)N1N=C(c2ccc3c(c2)CCC3)CC1c1ccccc1 (stereo not given)	> 100	28	88.6	> 100	50.8	> 100	96.9	80.8	> 100	> 100
CCOC(=O)C1C2C1C1C(C(=O)OCC)C21 (stereo not given)	> 100	> 100	> 100	> 100	> 100	> 100	> 100	> 100	> 100	> 100
CN(C)CCCN1C(=O)N(CCCN(C)C)c2c3cc(O)ccc3nc3c([N+](=O)[O-])ccc1c23	39.6	25.1	> 100	29.8	27.5	21.3	36.2	64	37.2	53.2
O=c1c2cc(Cl)ccc2n2nnc3ccc(NCCNCCO)c1c32	2.58	3.45	6.26	3.48	2.68	6.26	2.36	8.91	2.53	2.51
C=CC(=O)N1C/C(=C\c2ccc(F)cc2)C(=O)/C(=C/c2ccc(F)cc2)C1	4.47	0.556	2.38	0.434	1.81	1.38	1.29	13.5	2.59	> 100
CCCCC[C@@H]1OC(=O)[C@@]2(CC3c4ccccc4C2c2ccccc23)[C@H]1C(=O)OC	> 100	> 100	> 100	> 100	30.5	> 100	> 100	> 100	> 100	> 100
CCOC(=O)c1c(C)n(CCN2CCN(C)CC2)c2ccc(OC)cc12	> 100	> 100	> 100	> 100	31.6	> 100	56.2	> 100	> 100	> 100
C1CN(C23OC4(N5CCOCC5)C5C6CC(C7C6C4C72)C53)CCO1 (stereo not given)	> 100	> 100	> 100	> 100	> 100	> 100	> 100	> 100	> 100	> 100
O=[N+]([O-])c1ccc(-c2nc3ccccc3o2)cc1	> 100	> 100	> 100	> 100	> 100	> 100	> 100	> 100	> 100	> 100
CC[N+]1(C)CCC(O)(/C=C/c2ccc(Cl)c(Cl)c2)C(C(=O)/C=C/c2ccc(Cl)c(Cl)c2)C1 (stereo not given)	15.7	4.02	16.5	6.69	10.2	7.8	5.01	6.87	8.97	4.47
CCCCCCCCCCCOCCC1C(C(C)OCCN2CCCC2)OC2OC(C)(C)OC21 (stereo not given)	11.5	7.3	8.96	1.78	3.88	6.59	3.51	11.3	11.3	3.55
CC1=C(C(=O)OC(C)C)C(c2cccc([N+](=O)[O-])c2)C(C(=O)OC(CO[N+](=O)[O-])CO[N+](=O)[O-])=C(C)N1 (stereo not given)	> 100	58.1	> 100	12.9	8.39	> 87.6	15.3	> 100	> 100	> 100
